{
  "source": "patent US10864317B2",
  "about": "“Time controlled periodic infusion” (Ferrosan Medical Devices A/S, priority 2014, dated 2020)",
  "origin": "cited, not measured here",
  "test_system": "peripheral nerve",
  "conditions": "ropivacaine as LA; dependent on regional and individual differences",
  "data": [
    {"smiles": "CCCN1CCCC[C@H]1C(=O)Nc1c(C)cccc1C", "note": "[ropivacaine]", "values": [
      {"measurement": "duration of pain relief for nerve blocks", "result": "about 12 h"}
    ]}
  ]
}
